Assay results from US20240166635A1, “AMINOHETEROARYL KINASE INHIBITORS” (Anrui Biomedical Technology (Guangzhou) Co.,Ltd., priority 2020, published 2024).
pIC50: −log10 of the molar value. Read-outs that look alike come from different tables or passages of the source.

What was measured:
ER+BC = conditions: cited from earlier work
CDK2/CyclinE1 = CDK2/CyclinE1 (Homo sapiens (Human), UniProt P24941); assay: CDK2/CyclinE1 kinase inhibitory activity (Caliper mobility shift); format: biochemical; conditions: read-out: CDK2/Cyclin El IC50
CDK1/CyclinB = CDK1/CyclinB (Homo sapiens (Human), UniProt P06493); assay: CDK1/CyclinB kinase inhibitory activity (Caliper mobility shift); format: biochemical; conditions: read-out: CDK1/Cyclin B1 IC50
CDK4/Cyclin D1 = CDK4/Cyclin D1 (Homo sapiens (Human), UniProt P11802); assay: CDK4/CyclinD1 kinase inhibitory activity (Caliper mobility shift); format: biochemical
CDK6/CyclinD1 = CDK6/CyclinD1 (Homo sapiens (Human), UniProt Q00534); assay: CDK6/CyclinD1 kinase inhibitory activity (Caliper mobility shift); format: biochemical; conditions: read-out: CDK6/Cyclin D1 IC50
CDK7/CyclinH/MAT1 = CDK7/CyclinH/MAT1 (Homo sapiens (Human), UniProt P50613); assay: CDK7/CyclinH/MAT1 kinase inhibitory activity (Caliper mobility shift); format: biochemical
CDK9/CyclinT1 = CDK9/CyclinT1 (Homo sapiens (Human), UniProt P50750); assay: CDK9/CyclinT1 kinase inhibitory activity (Caliper mobility shift); format: biochemical; conditions: read-out: CDK9/Cyclin T1 IC50
CDK9/CyclinT1, sequence (P50750 whole entry): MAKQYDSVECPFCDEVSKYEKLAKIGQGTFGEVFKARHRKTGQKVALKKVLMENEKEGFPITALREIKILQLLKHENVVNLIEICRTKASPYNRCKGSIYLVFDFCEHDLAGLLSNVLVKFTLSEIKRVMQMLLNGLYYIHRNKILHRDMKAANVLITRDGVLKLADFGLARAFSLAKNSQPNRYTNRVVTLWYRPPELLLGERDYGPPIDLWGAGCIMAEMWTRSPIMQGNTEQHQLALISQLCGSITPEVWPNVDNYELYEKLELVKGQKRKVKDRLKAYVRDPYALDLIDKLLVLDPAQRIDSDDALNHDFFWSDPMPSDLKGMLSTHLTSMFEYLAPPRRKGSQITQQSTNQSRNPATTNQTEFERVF
CDK9/CyclinT1, sequence (O60563 whole entry partner): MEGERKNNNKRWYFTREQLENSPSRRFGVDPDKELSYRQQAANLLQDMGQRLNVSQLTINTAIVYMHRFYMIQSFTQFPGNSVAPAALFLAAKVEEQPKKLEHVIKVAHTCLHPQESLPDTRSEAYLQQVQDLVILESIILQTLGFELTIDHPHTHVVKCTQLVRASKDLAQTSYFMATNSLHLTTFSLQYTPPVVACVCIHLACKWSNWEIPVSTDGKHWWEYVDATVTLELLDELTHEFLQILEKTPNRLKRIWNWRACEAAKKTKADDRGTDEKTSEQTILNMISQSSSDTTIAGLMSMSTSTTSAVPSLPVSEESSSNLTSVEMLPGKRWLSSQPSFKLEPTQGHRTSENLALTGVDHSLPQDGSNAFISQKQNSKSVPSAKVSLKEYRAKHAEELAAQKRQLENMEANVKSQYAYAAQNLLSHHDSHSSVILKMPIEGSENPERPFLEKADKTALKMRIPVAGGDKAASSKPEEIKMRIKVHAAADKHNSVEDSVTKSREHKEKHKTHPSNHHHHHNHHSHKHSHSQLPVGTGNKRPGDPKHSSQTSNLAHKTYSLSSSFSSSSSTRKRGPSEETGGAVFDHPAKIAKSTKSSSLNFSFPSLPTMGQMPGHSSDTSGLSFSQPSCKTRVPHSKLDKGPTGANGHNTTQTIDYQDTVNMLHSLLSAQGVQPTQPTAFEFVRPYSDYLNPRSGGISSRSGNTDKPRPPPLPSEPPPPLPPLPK

CDK7/CyclinH/MAT1, sequence (P50613 whole entry): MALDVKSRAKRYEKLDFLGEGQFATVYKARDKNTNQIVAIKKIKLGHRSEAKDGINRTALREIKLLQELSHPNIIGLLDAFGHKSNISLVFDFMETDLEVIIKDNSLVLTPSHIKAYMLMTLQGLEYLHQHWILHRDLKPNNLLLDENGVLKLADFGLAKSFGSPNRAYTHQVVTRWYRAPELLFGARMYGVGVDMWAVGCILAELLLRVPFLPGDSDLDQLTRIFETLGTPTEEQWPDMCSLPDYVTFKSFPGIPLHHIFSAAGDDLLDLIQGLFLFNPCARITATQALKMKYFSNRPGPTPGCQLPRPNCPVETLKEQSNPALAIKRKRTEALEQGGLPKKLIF
CDK7/CyclinH/MAT1, sequence (P51946 whole entry partner): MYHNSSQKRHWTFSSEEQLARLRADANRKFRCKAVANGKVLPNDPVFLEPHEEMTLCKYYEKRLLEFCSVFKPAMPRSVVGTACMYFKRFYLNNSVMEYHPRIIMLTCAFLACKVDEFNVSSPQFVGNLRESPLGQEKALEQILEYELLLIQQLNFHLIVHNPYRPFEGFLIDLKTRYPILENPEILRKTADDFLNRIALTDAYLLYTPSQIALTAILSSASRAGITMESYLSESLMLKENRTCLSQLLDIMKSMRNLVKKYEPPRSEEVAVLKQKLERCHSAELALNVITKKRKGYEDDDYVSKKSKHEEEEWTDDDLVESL
CDK7/CyclinH/MAT1, sequence (P51948 whole entry partner): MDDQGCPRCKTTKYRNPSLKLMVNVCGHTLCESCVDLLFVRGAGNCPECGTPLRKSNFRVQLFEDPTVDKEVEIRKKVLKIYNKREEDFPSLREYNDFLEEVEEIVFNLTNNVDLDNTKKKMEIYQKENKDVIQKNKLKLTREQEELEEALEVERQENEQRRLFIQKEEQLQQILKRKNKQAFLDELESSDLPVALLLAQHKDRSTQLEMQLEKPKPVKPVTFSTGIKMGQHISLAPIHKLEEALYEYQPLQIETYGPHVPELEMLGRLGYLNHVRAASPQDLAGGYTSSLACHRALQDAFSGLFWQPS
CDK6/CyclinD1, sequence (Q00534 whole entry): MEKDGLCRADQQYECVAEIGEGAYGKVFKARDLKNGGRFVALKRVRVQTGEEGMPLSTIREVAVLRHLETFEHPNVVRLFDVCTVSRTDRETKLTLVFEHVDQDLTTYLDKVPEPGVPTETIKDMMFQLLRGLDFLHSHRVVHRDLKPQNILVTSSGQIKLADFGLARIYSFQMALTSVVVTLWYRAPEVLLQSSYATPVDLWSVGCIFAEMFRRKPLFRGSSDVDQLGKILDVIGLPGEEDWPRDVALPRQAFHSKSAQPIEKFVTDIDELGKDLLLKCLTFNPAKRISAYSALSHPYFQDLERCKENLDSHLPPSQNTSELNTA
CDK6/CyclinD1, sequence (P24385 whole entry partner): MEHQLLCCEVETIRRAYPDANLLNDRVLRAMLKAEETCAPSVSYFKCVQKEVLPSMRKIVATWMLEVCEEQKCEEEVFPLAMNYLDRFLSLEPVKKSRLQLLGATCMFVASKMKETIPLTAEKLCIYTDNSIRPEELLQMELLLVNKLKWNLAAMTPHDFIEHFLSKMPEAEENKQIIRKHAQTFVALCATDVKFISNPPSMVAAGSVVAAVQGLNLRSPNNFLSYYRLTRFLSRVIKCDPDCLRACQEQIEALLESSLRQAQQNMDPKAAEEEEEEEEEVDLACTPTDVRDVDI
CDK1/CyclinB, sequence (P06493 whole entry): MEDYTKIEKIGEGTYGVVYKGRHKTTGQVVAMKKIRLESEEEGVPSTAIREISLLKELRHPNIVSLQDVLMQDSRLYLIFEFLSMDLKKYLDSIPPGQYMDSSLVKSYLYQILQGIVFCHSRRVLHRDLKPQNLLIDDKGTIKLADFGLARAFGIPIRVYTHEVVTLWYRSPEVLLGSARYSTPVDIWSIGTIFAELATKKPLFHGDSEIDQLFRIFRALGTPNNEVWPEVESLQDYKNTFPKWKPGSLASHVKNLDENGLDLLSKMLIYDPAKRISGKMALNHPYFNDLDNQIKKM
CDK1/CyclinB, sequence (P14635 whole entry partner): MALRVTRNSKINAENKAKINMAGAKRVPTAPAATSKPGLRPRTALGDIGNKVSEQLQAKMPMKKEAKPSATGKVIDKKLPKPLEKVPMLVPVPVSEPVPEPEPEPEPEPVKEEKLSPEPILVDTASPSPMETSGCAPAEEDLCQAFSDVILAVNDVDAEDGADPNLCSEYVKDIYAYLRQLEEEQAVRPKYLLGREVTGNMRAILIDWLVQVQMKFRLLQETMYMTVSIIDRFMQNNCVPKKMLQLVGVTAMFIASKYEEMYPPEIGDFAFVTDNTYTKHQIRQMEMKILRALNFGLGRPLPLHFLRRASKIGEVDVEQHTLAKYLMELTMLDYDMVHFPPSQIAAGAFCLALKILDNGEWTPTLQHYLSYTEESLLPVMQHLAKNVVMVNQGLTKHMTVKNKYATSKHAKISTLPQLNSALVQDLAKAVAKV
CDK4/Cyclin D1, sequence (P11802 whole entry): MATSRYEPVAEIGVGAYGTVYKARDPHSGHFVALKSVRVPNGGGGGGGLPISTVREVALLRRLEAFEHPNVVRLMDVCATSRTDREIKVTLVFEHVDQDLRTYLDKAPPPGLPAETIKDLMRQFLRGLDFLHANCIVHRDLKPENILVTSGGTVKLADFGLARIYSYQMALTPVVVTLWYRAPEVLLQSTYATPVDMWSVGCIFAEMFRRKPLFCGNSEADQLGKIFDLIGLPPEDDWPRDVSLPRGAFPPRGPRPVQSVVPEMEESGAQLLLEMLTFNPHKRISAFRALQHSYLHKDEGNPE
CDK4/Cyclin D1, sequence (P24385 whole entry partner): as the sequence (P24385 whole entry partner) above

Compound	pIC50 (CDK2/CyclinE1)	pIC50 (CDK1/CyclinB)	pIC50 (CDK4/Cyclin D1)	pIC50 (CDK6/CyclinD1)	pIC50 (CDK7/CyclinH/MAT1)	pIC50 (CDK9/CyclinT1)	median PFS (ER+BC; CCNE1 high) [month]	median PFS (ER+BC; CCNE1 low) [month]
Palbociclib plus fulvestrant [Palbociclib+fulvestrant]	–	–	–	–	–	–	7.6	14.1
CC1(O)CCC(F)(F)CC1Oc1nc(NC2CCN(S(C)(=O)=O)CC2)ncc1C#N (single isomer, unassigned) [Example 46b]	> 8.00	> 8.00	> 8.00	> 8.00	> 8.00	7.00 to 8.00	–	–
CC1(O)CCCC1Oc1nc(NC2CCN(S(=O)(=O)CC3CCOC3)CC2)ncc1C#N (single isomer, unassigned) [Example 40a]	> 8.00	7.00 to 8.00	> 8.00	> 8.00	6.00 to 7.00	6.00 to 7.00	–	–
NS(=O)(=O)c1ccc(Nc2ncc(C(F)(F)F)c(O[C@@H]3CCC[C@@H]3O)n2)cc1 (single isomer, unassigned) [Example 99a, cis-4-((4-((2-hydroxycyclopentyl)oxy)-5-(trifluoromethyl)pyrimidin-2-yl)amino)benzenesulfonamide]	> 8.00	7.00 to 8.00	6.00 to 7.00	7.00 to 8.00	6.00 to 7.00	7.00 to 8.00	–	–
Cn1ccc(S(=O)(=O)N2CCC(Nc3ncc(C#N)c(OCC4(C)CCCC4)n3)CC2)n1 [Example 63]	> 8.00	> 8.00	> 8.00	> 8.00	6.00 to 7.00	6.00 to 7.00	–	–
C[C@]1(O)COC[C@H]1Oc1nc(NC2CCN(S(C)(=O)=O)CC2)ncc1C(F)(F)F (relative stereo) [Example 104a, cis-3-methyl-4-((2-((1-(methylsulfonyl)piperidin-4-yl)amino)-5-(trifluoromethyl)pyrimidin-4-yl)oxy)tetrahydrofuran-3-ol]	> 8.00	7.00 to 8.00	7.00 to 8.00	7.00 to 8.00	7.00 to 8.00	6.00 to 7.00	–	–

Second part, led by results:

pIC50 (CDK2/CyclinE1)	pIC50 (CDK1/CyclinB)	pIC50 (CDK4/Cyclin D1)	pIC50 (CDK6/CyclinD1)	pIC50 (CDK7/CyclinH/MAT1)	pIC50 (CDK9/CyclinT1)	Compound	median PFS (ER+BC; CCNE1 high) [month]	median PFS (ER+BC; CCNE1 low) [month]
> 8.00	7.00 to 8.00	6.00 to 7.00	6.00 to 7.00	6.00 to 7.00	6.00 to 7.00	CC(C)NS(=O)(=O)c1ccc(Nc2ncc(C3CC3)c(O[C@@H]3CCC[C@@H]3O)n2)cc1 (single isomer, unassigned) [Example 134a, cis-4-((5-cyclopropyl-4-((2-hydroxycyclopentyl)oxy)pyrimidin-2-yl)amino)-N-isopropylbenzenesulfonamide]	–	–
> 8.00	7.00 to 8.00	6.00 to 7.00	6.00 to 7.00	6.00 to 7.00	6.00 to 7.00	O=S(=O)(NC1CC1)c1ccc(Nc2ncc(C(F)(F)F)c(OC3CCCC3O)n2)cc1 (single isomer, unassigned) [Example 107a]	–	–
> 8.00	7.00 to 8.00	6.00 to 7.00	6.00 to 7.00	6.00 to 7.00	6.00 to 7.00	CC(C)NS(=O)(=O)c1ccc(Nc2ncc(Cl)c(OC3CCCC3O)n2)cc1 (single isomer, unassigned) [Example 138a]	–	–
> 8.00	7.00 to 8.00	6.00 to 7.00	7.00 to 8.00	6.00 to 7.00	6.00 to 7.00	CN1CCC(NS(=O)(=O)c2ccc(Nc3ncc(Cl)c(OC4CCCC4O)n3)cc2)CC1 (single isomer, unassigned) [Example 139a]	–	–
> 8.00	7.00 to 8.00	6.00 to 7.00	6.00 to 7.00	6.00 to 7.00	6.00 to 7.00	CC1(NS(=O)(=O)c2ccc(Nc3ncc(Br)c(O[C@@H]4CCC[C@@H]4O)n3)cc2)COC1 (single isomer, unassigned) [Example 131a, cis-4-((5-bromo-4-((2-hydroxycyclopentyl)oxy)pyrimidin-2-yl)amino)-N-(3-methyloxetan-3-yl)benzenesulfonamide]	–	–
